Data on 9 compounds can be found in patent US9233957B2, “5-carbamoyl-adamantan-2-yl amide derivatives, pharmaceutically acceptable salts thereof and preparation process thereof” (SK BIOPHARMACEUTICALS CO., LTD., priority 2011, dated 2016).

Read-outs that look alike come from different tables or passages of the source.

In one assay the target is T1, Human 11b-HSD1 (Homo sapiens, UniProt P28845).
T1 construct: expressed in transfected cells
Description: Inhibition of cortisone-to-cortisol conversion in CHO-K1 cells over-expressing human 11b-HSD1 (HTRF cortisol assay). The note with it: CHO-K1 cells over-expressing human 11b-HSD1, 160 nM cortisone, 3 hours, 37° C. Format: cell-based. The text has this: (§1) cDNA (human: Accession No. U12978.2; mouse: Accession No. NM_008288.2) coding the full-length amino acid sequence of 11β-HSD1 in a human and a mouse was incorporated into pMSCVpuro (from Clontech. Co. Ltd.), a vector of expressing a mammalian cell for the production of a retrovirus, and the resulting product was introduced into a GP2-293 cell (from Clontech Co. Ltd.), a retrovirus packing cell line together with pVSV-G vector (from Clontech Co. Ltd.) by using a Lipotamine plus reagent (from Invitrogen Co. Ltd.) in accordance with the method set forth in the appendix (by using HTRF cortisol assay kit from Cisbio assays Co., Ltd., catalog No. 62CO2PEB) and stabilized for 48 hours. Thereafter, viruses being obtained from those cells were used to infect CHO-K1 cell (from Korean Cell Line Bank, KCLB No. 10061) and in 24 hours, the cells were treated with 10 μg/ml pumycin (from Sigma Co. Ltd.) for two weeks to produce a stabilized cell system wherein each 11β-HSD1 in humans or in mice was over-expressed. When the cells being maintained, 5 μg/ml of puromycin was put into the medium and used (RPMI (Gibco), 37° C.). • Reference material: The EMBO Journal (2008) 27, 642-653
(§2) The obtained cells with 11b-HSD1 in a human and a mouse being over-expressed were sub-cultured in a 96-well plate with a cell number being 3×10^4 cells per well and stabilized for 24 hours [RPMI (Gibco), at 37° C., as being used in 5 days after thawing]. After a medium as diluted with DMSO including 160 nM of cortisone (from Sigma Co. Ltd.) and a test compound at a different concentration was put into each well in an amount of 200 ul, the well was cultured in a cell cultivator at 37° C. for 3 hours. 10 ul of the cultured solution was put into a 384 well plate and the amount of cortisol as generated was measured using a cortisol kit (from Cisbio international Co. Ltd, HTRF assay) in accordance with the method set forth in the appended manual.
(§3) As a control group, 160 nM of cortisone and 1% of DMSO were put into a corresponding well. The ground value was obtained from a well including only 160 nM of cortisone and 1% of DMSO without cells just like the control group. The calculation for a % inhibition level was made following the manual as appended. • Reference material: The Journal of Steroid Biochemistry and Molecular Biology, Volume 104, Issues 3-5, May 2007, Pages 123-129 • Bioorganic & Medicinal Chemistry Letters Volume 19, Issue 10, 15 May 2009, Pages 2674-2678
(§4) Like the analyzing method as stated above, the efficacy of inhibiting 11b-HSD1 was calculated as IC50 and the results are shown in Table 1: […]

The next assay has as its target T2, Mouse 11b-HSD1 (Mus musculus, UniProt P50172).
T2 construct: expressed in transfected cells
Description: Inhibition of cortisone-to-cortisol conversion in CHO-K1 cells over-expressing mouse 11b-HSD1 (HTRF cortisol assay). Format: cell-based. The conditions noted are these: CHO-K1 cells over-expressing mouse 11b-HSD1, 160 nM cortisone, 3 hours, 37° C.
From the text: as §1, §2, §3, §4
For orientation: Time-resolved FRET reads energy transfer from a long-lived donor to a nearby acceptor.

For another assay, the target named is T3, 11b-HSD1 (Mus musculus, UniProt P50172).
T3 construct: the tissues in abdominal fat and the liver were obtained; from tissue; host or cells: abdominal fat and liver of C57Bl/6 mice
Description: Ex vivo PD assay: 11b-HSD1 inhibition in abdominal fat and liver tissue after oral administration to mice. The note with it: mouse C57B1/6, oral, vs vehicle group; for inhibition at 20 mg/kg: 6 hr; for inhibition at 10 mg/kg: 2 hr. The method, then:
The prepared compound was orally administered to a mouse (C57B1/6, orient 8 week old, about 25 g, male) and in a proper amount of time (2 hours, 6 hours, 12 hours, 16 hours, and 24 hours), the mouse was sacrificed and around 30 to 40 mg of the tissues in abdominal fat and the liver were obtained. To 500 ul of a medium (RPMI, gibco) including 1 μM of cortisone (from Sigma Co. Ltd.) and 400 μM of NADPH (from Sigma Co. Ltd) was added the tissue as obtained (30-40 mg), which then reacted in a cell cultivator at 37° C. for 3 hours. After 50 ul of the reacted solution was taken and diluted with DMEM medium at a volume ratio of 1/10, the amount of cortisol being generated was measured by using a cortisol kit (assay designs Co. Ltd., ELISA kit) in accordance with the method set forth in the appended manual. From the results being measured, the degree of the inhibition was obtained by the conversion in comparison with the vehicle group (vehicle: 5% DMSO+5% cremophor in dw, the amount being proportionate to the body weight, i.e., the administration was made at the same volume as the drug being introduced). • Reference material: Published Aug. 15, 2005//JEM vol. 202 no. 4 517-527 The Rockefeller University Press % inhibition={(the amount of cortisol of the vehicle group−the amount of the cortisol of the group with the compound being administered)/(the amount of cortisol of the vehicle group)}×100
According to the above analyzing method, the efficacy of inhibiting 11b-HSD1 of the test compound in the target organ was calculated as % inhibition values, which are shown in Table 2 and Table 3.

Setting [1] is: abdominal fat, read-out: 11b-HSD1 % inhibition in the fat.
Setting [2] is: liver, read-out: 11b-HSD1 % inhibition in the liver.

T2 sequence (P50172 whole entry): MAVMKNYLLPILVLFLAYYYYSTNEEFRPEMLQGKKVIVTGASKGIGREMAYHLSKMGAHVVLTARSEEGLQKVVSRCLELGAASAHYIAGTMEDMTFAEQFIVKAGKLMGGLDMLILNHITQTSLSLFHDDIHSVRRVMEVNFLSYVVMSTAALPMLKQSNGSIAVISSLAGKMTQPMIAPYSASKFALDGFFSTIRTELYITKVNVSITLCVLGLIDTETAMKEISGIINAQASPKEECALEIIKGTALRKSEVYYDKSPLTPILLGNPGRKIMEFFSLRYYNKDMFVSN
T3 sequence (P50172 whole entry): as above
T1 sequence (P28845 whole entry): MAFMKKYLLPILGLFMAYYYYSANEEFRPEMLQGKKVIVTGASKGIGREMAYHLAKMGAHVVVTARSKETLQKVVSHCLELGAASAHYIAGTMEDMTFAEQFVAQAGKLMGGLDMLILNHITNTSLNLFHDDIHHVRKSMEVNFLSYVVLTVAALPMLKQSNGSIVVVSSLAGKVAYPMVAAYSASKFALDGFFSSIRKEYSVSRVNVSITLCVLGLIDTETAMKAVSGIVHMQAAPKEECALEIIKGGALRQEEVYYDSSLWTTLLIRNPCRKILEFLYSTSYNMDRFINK

For `NC(=O)[C@]12CC3CC(C1)[C@@H](NC(=O)c1ccc(-c4cccc(Cl)c4)o1)C(C3)C2` [Example 26, N-(5-carbamoyl-2-adamantyl)-5-(3-chlorophenyl)furan-2-carboxamide], the IC50 against Human 11b-HSD1 and against Mouse 11b-HSD1 was below 100 nM throughout. For the same compound, the inhibition at 20 mg/kg stood at 71% on 11b-HSD1 (setting [1]) and 47% on 11b-HSD1 (setting [2]).
As to `NC(=O)[C@]12CC3CC(C1)[C@@H](NC(=O)c1ccc(-c4ccccc4Cl)o1)C(C3)C2` [Example 27, N-(5-carbamoyl-2-adamantyl)-5-(2-chlorophenyl)furan-2-carboxamide], the IC50 at Human 11b-HSD1 and against Mouse 11b-HSD1 was below 100 nM each time. Further, the inhibition at 20 mg/kg at 11b-HSD1 (setting [1]) was 80%; at 11b-HSD1 (setting [2]) it was 65%.
On to `NC(=O)[C@]12CC3CC(C1)[C@@H](NC(=O)c1ccc(-c4ccccc4F)o1)C(C3)C2` [Example 30, N-(5-carbamoyl-2-adamantyl)-5-(2-fluorophenyl)furan-2-carboxamide], for which the 50% inhibitory concentration (IC50) at Human 11b-HSD1 and on Mouse 11b-HSD1 was below 100 nM each time. Also, the inhibition at 20 mg/kg was 72% at 11b-HSD1 (setting [1]) and 69% on 11b-HSD1 (setting [2]).
For the compound `Cn1c(C(=O)N[C@H]2C3CC4CC2C[C@](C(N)=O)(C4)C3)ccc1-c1ccccc1` [Example 34, N-(5-carbamoyl-2-adamantyl)-1-methyl-5-phenylpyrrole-2-carboxamide], the IC50 against Human 11b-HSD1 and on Mouse 11b-HSD1 was below 100 nM each time. Also, the inhibition at 20 mg/kg at 11b-HSD1 (setting [1]) was determined as 96%; on 11b-HSD1 (setting [2]), 92%.
Take `Cn1c(C(=O)N[C@H]2C3CC4CC2C[C@](C(N)=O)(C4)C3)ccc1-c1ccccc1Cl` [Example 38, N-(5-carbamoyl-2-adamantyl)-5-(2-chlorophenyl)-1-methylpyrrole-2-carboxamide]: the 50% inhibitory concentration (IC50) against Human 11b-HSD1 and against Mouse 11b-HSD1 was below 100 nM in each case. Also, the inhibition at 20 mg/kg at 11b-HSD1 (setting [1]) and at 11b-HSD1 (setting [2]) was 98% throughout.
Consider `Cn1c(C(=O)N[C@H]2C3CC4CC2C[C@](C(N)=O)(C4)C3)ccc1-c1ccccc1F` [Example 39, N-(5-carbamoyl-2-adamantyl)-5-(2-fluorophenyl)-1-methylpyrrole-2-carboxamide], for which the IC50 at Human 11b-HSD1 and against Mouse 11b-HSD1 was below 100 nM throughout. In addition, the inhibition at 20 mg/kg came to 98% on 11b-HSD1 (setting [1]) and 96% at 11b-HSD1 (setting [2]).
In the case of `NC(=O)[C@]12CC3CC(C1)[C@@H](NC(=O)c1ccc(-c4ccccc4)s1)C(C3)C2` [Example 40, N-(5-carbamoyl-2-adamantyl)-5-phenylthiophene-2-carboxamide], the half-maximal inhibitory concentration (IC50) on Human 11b-HSD1 and against Mouse 11b-HSD1 was below 100 nM in each case. Further, the inhibition at 20 mg/kg on 11b-HSD1 (setting [1]) was found to be 63%; at 11b-HSD1 (setting [2]) it was 38%.
Consider `NC(=O)[C@]12CC3CC(C1)[C@@H](NC(=O)c1ccc(-c4ccccc4Cl)s1)C(C3)C2` [Example 43, N-(5-carbamoyl-2-adamantyl)-5-(2-chlorophenyl)thiophene-2-carboxamide], for which the IC50 on Human 11b-HSD1 and at Mouse 11b-HSD1 was below 100 nM each time. The inhibition at 20 mg/kg on 11b-HSD1 (setting [1]) stood at 70%; at 11b-HSD1 (setting [2]), 59%.
For `NC(=O)[C@]12CC3CC(C1)[C@@H](NC(=O)c1ccc4ccccc4[n+]1[O-])C(C3)C2` [Example 64, N-(5-carbamoyl-2-adamantyl)-1-oxidoquinolin-1-ium-2-carboxamide], the IC50 against Human 11b-HSD1 is above 500 nM; on Mouse 11b-HSD1, 100 to 500 nM. Also, the inhibition at 10 mg/kg was 51% at 11b-HSD1 (setting [1]) and 61% on 11b-HSD1 (setting [2]). Besides, the inhibition at 20 mg/kg was 57% at 11b-HSD1 (setting [1]) and 48% on 11b-HSD1 (setting [2]).

By IC50 is commonly meant the concentration needed to halve the response being measured. The low end stands for greater potency, the high end for weaker potency. For orientation: inhibition means the relative decrease from the control value, in per cent.
